Data on 9 molecules can be found in US4806532A, “Inhibition of epithelial phosphate transport” (Mayo Foundation for Medical Education and Research, priority 1985, dated 1989).

Each structure is given as a SMILES string. “Also recorded” adds a separate entry of the source.

One data set deals with T1, Na-Pi cotransporter (Rattus norvegicus, UniProt Q06496).
T1 construct: from tissue; host or cells: rat renal cortex, brush border membrane vesicles
T1 sequence (Q06496 1-637): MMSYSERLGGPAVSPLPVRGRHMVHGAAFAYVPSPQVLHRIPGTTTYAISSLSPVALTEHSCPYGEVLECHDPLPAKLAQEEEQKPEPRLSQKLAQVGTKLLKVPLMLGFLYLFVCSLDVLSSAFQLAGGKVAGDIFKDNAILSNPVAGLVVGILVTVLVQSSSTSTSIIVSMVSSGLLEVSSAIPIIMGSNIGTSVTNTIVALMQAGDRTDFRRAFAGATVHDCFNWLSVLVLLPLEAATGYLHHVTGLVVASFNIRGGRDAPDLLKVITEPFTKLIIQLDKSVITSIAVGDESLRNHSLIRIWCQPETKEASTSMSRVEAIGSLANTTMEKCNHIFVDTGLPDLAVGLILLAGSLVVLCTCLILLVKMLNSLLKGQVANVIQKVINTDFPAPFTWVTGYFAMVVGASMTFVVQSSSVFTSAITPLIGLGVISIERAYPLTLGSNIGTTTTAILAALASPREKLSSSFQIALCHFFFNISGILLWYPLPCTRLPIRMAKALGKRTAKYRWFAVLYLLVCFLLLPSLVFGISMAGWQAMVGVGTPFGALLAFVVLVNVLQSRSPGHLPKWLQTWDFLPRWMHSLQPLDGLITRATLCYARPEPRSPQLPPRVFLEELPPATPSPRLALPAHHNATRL
Put plainly: Na+-gradient-dependent 32Pi uptake by renal cortical BBMV (rapid filtration). The class given is biochemical. The procedure:
(§1) The brush border membrane vesicles (BBMV) were prepared from renal cortical tissue of adult male Sprague-Dawley rats of an average body weight of about 220 grams. Rats were fed ad libitum standard rat chow containing 0.7% Pi and had free access to distilled water. Rats were sacrificed under anesthesia and dissected renal cortical tissue was used for preparation of BBMV fraction by the divalent cation-precipitation procedure, employed and described in detail in J. Clin. Invest., 67, 1347 (1981) and J. Biol. Chem., 258, 5695 (1983), with the following modifications: (a) MgCl2 instead of CaCl2 was added to crude homogenate (final concentration 10 mM MgCl2) to precipitate membranes other than BBMV; (b) in the final step, BBMV were washed and equilibrated in a medium of pH=7.5, instead of pH=8.5. The enrichment and specific activities of typical BBM enzymes alkaline phosphatase (APases), γ-glutyamyl transferase (γ-GTT), leucineaminopeptidase (LAP) and maltase with use of these modifications were similar as in BBMV fractions prepared in our previous studies. As a final step in the preparative procedure, the BBMV fraction was washed and resuspended in a medium containing 300 mM mannitol and 5 mM Tris-HEPES adjusted to pH=t.5, referred to as "MTH-medium," unless specified otherwise. The analogous BBMV fractions, using the same procedure, were prepared from renal cortices of mongrel dogs, albino mice and New Zealand albino rabbits.
The BBMV uptake of ^32 Pi, D-[^3 H]-glucose, L-[^3 H]-proline and ^22 Na^+ was measured by means of a rapid filtration technique, as described in J. Clin. Invest., 67, 1347 (1981) and Am. J. Physiol., 246, F133-F139 (1984). Also, unless specified otherwise, the medium for the solute uptake assay consisted of following compounds (in final concentrations): 100 mM mannitol, 100 mM NaCl (or 100 mM KC1) and 5 mM Tris-HEPES (pH=7.5) and eitehr 0.1 mM K2 H^32 PO4, or 0.05 mM D-[^3 H]-glucose, or 0.025 mM L-[^3 H]-proline. IN the ^22 Na^+ uptake studies, the assay medium contained 100 mM ^22 NaCl (^22 NaCl about […] per tube), 100 mM mannitol and 5 mM Tris-HEPES (pH 7.5).
In most experiments, the Na^+ -gradient-dependent ^32 Pi uptake in the concentrative "uphill" phase was measured at 20 seconds period. Since Na^+ -independent Pi uptake in this time period was quantitatively minor component (<5%) of the Na^+ -gradient-dependent Pi uptake, it was not routinely subtracted.

The nature of data set [1]: Hydrolysis of phosphono-compounds (release of Pi) in the BBMV assay. To be noted: 1 mM; hydrolysis to release more than 5% Pi. The text has this: Compounds studied in the present experiments which inhibited BBM transport of Pi without hydrolysis to release more than 5% Pi are listed in Table 1.
The subject of data set [2] is L-[^3 H]-proline uptake by BBMV. Put plainly: Na+-gradient-dependent uptake of L-[3H]-proline by renal BBMV. The class given is biochemical, rat. To be noted: initial uptake 15 sec, FIG. 2. The procedure:
as §1, with “As a final step in the preparative procedure, the BBMV fraction was washed and resuspended in a medium containing 300 mM mannitol and 5 mM Tris-HEPES adjusted to pH=t.5, referred to as "MTH-medium," unless specified otherwise. The analogous BBMV fractions, using the same procedure, were prepared from renal cortices of mongrel dogs, albino mice and New Zealand albino rabbits.” left out
(§2) The BBMV uptake of ^32 Pi, D-[^3 H]-glucose, L-[^3 H]-proline and ^22 Na^+ was measured by means of a rapid filtration technique, as described in J. Clin. Invest., 67, 1347 (1981) and Am. […]

Data set [3] concerns diffusional uptake of ^22 Na^+ by BBMV. Put plainly: Diffusional uptake of 22Na+ by renal BBMV. The class given is biochemical, rat. To be noted: 1 mM. Here is the method: as §1, with “As a final step in the preparative procedure, the BBMV fraction was washed and resuspended in a medium containing 300 mM mannitol and 5 mM Tris-HEPES adjusted to pH=t.5, referred to as "MTH-medium," unless specified otherwise. The analogous BBMV fractions, using the same procedure, were prepared from renal cortices of mongrel dogs, albino mice and New Zealand albino rabbits.” left out
as §2

Data set [4] has as its system D-[^3 H]-glucose uptake by BBMV. Put plainly: Na+-gradient-dependent uptake of D-[3H]-glucose by renal BBMV. To be noted: initial uptake 15 sec, FIG. 2. In kind it is biochemical, rat. Here is the method:
as §1, with “As a final step in the preparative procedure, the BBMV fraction was washed and resuspended in a medium containing 300 mM mannitol and 5 mM Tris-HEPES adjusted to pH=t.5, referred to as "MTH-medium," unless specified otherwise. The analogous BBMV fractions, using the same procedure, were prepared from renal cortices of mongrel dogs, albino mice and New Zealand albino rabbits.” left out
as §2

In the case of `NCCP(=O)(O)O` [2-aminoethylphosphonic acid, reference compound], the “effect on Na+-gradient uptake of Pi by renal BBMV (in words)” value (“effect on Na+-gradient uptake of Pi” for short) at Na-Pi cotransporter was “lacked the inhibitory effect”.

On to `CC(O)(P(=O)(O)O)P(=O)(O)O` [EHDP, disodium ethane-1-hydroxy-1,1-diphosphonate, reference compound], for which the “Note: hydrolysis” value in data set [1] is “no”. At Na-Pi cotransporter (1 mM, initial uptake at 20 sec, rat kidney cortex BBMV, read-out: Δ% (inhibition as percent decrease from control) of Na+-gradient-dependent 32Pi uptake), the inhibition at 1000 µM was -27%.

In the case of `O=P(O)(O)CP(=O)(O)O` [MDP, Methylenediphosphonic acid, reference compound], the inhibition at 5000 µM on Na-Pi cotransporter (5 mM, initial uptake at 20 sec, rat kidney cortex BBMV, read-out: Δ% (inhibition as percent decrease from control) of Na+-gradient-dependent 32Pi uptake) was -21%.

In the case of `O=C(O)P(=O)(O)O` [PFA, phosphonoformic acid], in data set [2], the “effect on Na+-gradient-dependent uptake of L-[3H]-proline” value is on record as “no inhibitory effect”. The “22Na+ uptake 120 min” value in data set [3] (equilibrium, control 166 ± 25) came to 192 ± 30 nmoles/mg protein. The “22Na+ uptake 20 sec” value in data set [3] (mean ± SEM of 3 experiments, control 42 ± 4) is reported as 45 ± 3 nmoles/mg protein. In addition, the “effect on Na+-gradient-dependent uptake of D-[3H]-glucose” value in data set [4] is “no inhibitory effect”.

In the case of `O=C(O)CCP(=O)(O)O` [PPA, phosphonopropionic acid, reference compound], at Na-Pi cotransporter, the “effect on Na+-gradient uptake of Pi” value was “inactive”.

On to `O=P(O)(O)CO` [hydroxymethylphosphonic acid, reference compound], for which, on Na-Pi cotransporter, the “effect on Na+-gradient uptake of Pi” value was “without effect; also recorded: lacked the inhibitory effect”.

In the case of `O=P(O)(O)c1ccccc1` [phenylphosphonic acid, reference compound], the “effect on Na+-gradient uptake of Pi” value on Na-Pi cotransporter was “without effect; also recorded: lacked the inhibitory effect”.

Turning to `COC(=O)CP(=O)(OC)OC` [trimethylester of PAA, reference compound], the “effect on Na+-gradient uptake of Pi” value at Na-Pi cotransporter is recorded as “without inhibitory effort”.

Take `COC(=O)P(=O)(OC)OC` [trimethylester of TPFA, reference compound]: the “effect on Na+-gradient uptake of Pi” value on Na-Pi cotransporter was “without inhibitory effort”.
